ChEMBL document CHEMBL3872238, “Selectivity switch between FAK and Pyk2: Macrocyclization of FAK inhibitors improves Pyk2 potency” (Bioorg Med Chem Lett, 2016)
Values after ≈ are worked out from the molar mass of the structure shown.

Legend:
[1] = Kinetic solubility of compound at pH 7; type: physicochemical; conditions: buffer, read-out: Kinetic_solubility
[2] = Half life in dog liver microsomes; type: ADME, Canis lupus familiaris
[3] = Half life in mouse liver microsomes; type: ADME
[4] = Half life in human liver microsomes; type: ADME
[5] = Permeability from apical side to basolateral side in human Caco2 cells; type: ADME, cell-based; conditions: Caco-2, read-out: permeability
[6] = Permeability from basolateral side to apical side in human Caco2 cells; type: ADME, cell-based; conditions: Caco-2, read-out: permeability

SMILES | solubility kinetic [1] [µM] | half-life [2] [h] | half-life [3] [h] | half-life [4] [h] | Papp A→B [5] [×10⁻⁶ cm/s] | Papp B→A [6] [×10⁻⁶ cm/s]
CN1Cc2ccccc2N(S(C)(=O)=O)CCCCC(=O)N2CCc3cc(ccc32)Nc2ncc(C(F)(F)F)c1n2 | < 1.6 | < 1 | < 1 | < 1 |  | 
CN1Cc2ccncc2N(S(C)(=O)=O)C/C=C/c2cc(ccc2N2CCOCC2)Nc2ncc(C(F)(F)F)c1n2 | 3 (≈ 1.73 µg/mL) |  |  | 4.38 |  | 
CCS(=O)(=O)N1CCCCC(=O)N2CCc3cc(ccc32)Nc2ncc(C(F)(F)F)c(n2)NCc2ccccc21 | < 1.6 | < 1 | < 1 | < 1 |  | 
CS(=O)(=O)N1CCCCC(=O)N2CCc3cc(ccc32)Nc2ncc(C(F)(F)F)c(n2)NCc2ccccc21 | < 1.6 | < 1 | < 1 | < 1 |  | 

Results, then the molecule that gave them:

solubility kinetic [1] [µM] | half-life [2] [h] | half-life [3] [h] | half-life [4] [h] | Papp A→B [5] [×10⁻⁶ cm/s] | Papp B→A [6] [×10⁻⁶ cm/s] | SMILES
1 (≈ 0.576 µg/mL) |  |  |  |  |  | CN1Cc2cccnc2N(S(C)(=O)=O)C/C=C/c2cc(ccc2N2CCOCC2)Nc2ncc(C(F)(F)F)c1n2
0.3 (≈ 0.143 µg/mL) |  |  |  |  |  | CS(=O)(=O)N1C/C=C/c2cccc(c2)Nc2ncc(C(F)(F)F)c(n2)NCc2cccnc21
 |  |  |  | 11 | 29 | CN(c1ncccc1CNc1nc(Nc2ccc3c(c2)CC(=O)N3)ncc1C(F)(F)F)S(C)(=O)=O [PF-00562271]
 | < 1 | < 1 | < 1 | 30 | 32 | CS(=O)(=O)N1CCCCC(=O)N2CCc3cc(ccc32)Nc2ncc(C(F)(F)F)c(n2)NCc2cccnc21
